From patent US20090209535A1, “6-ETHER/THIOETHER-PURINES AS TOPOISOMERASE II CATALYTIC INHIBITORS AND THEIR USE IN THERAPY” (TOPOTARGET A/S, priority 2005, published 2009)

Legend:
[1] = test system: human SCLC OC—NYH cells; test: Clonogenic assay, antagonism of etoposide-induced cytotoxicity; type: cell-based; conditions: 20 μM etoposide, one hour; 20 min pre-exposure
Protocol: Cells were then plated in 0.3% agar in 6 cm petri dishes with sheep red blood cells as feeder layer in triplicate, and were incubated under the same conditions as described above. Plates were counted after 3 weeks.
20 μM etoposide was then added, and the cells were incubated for one hour. Next, the drugs were washed out and the cells were plated and counted after three weeks as described herein.

[2] = biological target: T1, topoisomerase II α (Homo sapiens, UniProt P11388); test: Topoisomerase II retention on DNA/streptavidin beads (salt-stable complex); type: biochemical; set-up: made in house; host or cells: yeast (over-expressing yeast cells)
T1 sequence (P11388 whole entry): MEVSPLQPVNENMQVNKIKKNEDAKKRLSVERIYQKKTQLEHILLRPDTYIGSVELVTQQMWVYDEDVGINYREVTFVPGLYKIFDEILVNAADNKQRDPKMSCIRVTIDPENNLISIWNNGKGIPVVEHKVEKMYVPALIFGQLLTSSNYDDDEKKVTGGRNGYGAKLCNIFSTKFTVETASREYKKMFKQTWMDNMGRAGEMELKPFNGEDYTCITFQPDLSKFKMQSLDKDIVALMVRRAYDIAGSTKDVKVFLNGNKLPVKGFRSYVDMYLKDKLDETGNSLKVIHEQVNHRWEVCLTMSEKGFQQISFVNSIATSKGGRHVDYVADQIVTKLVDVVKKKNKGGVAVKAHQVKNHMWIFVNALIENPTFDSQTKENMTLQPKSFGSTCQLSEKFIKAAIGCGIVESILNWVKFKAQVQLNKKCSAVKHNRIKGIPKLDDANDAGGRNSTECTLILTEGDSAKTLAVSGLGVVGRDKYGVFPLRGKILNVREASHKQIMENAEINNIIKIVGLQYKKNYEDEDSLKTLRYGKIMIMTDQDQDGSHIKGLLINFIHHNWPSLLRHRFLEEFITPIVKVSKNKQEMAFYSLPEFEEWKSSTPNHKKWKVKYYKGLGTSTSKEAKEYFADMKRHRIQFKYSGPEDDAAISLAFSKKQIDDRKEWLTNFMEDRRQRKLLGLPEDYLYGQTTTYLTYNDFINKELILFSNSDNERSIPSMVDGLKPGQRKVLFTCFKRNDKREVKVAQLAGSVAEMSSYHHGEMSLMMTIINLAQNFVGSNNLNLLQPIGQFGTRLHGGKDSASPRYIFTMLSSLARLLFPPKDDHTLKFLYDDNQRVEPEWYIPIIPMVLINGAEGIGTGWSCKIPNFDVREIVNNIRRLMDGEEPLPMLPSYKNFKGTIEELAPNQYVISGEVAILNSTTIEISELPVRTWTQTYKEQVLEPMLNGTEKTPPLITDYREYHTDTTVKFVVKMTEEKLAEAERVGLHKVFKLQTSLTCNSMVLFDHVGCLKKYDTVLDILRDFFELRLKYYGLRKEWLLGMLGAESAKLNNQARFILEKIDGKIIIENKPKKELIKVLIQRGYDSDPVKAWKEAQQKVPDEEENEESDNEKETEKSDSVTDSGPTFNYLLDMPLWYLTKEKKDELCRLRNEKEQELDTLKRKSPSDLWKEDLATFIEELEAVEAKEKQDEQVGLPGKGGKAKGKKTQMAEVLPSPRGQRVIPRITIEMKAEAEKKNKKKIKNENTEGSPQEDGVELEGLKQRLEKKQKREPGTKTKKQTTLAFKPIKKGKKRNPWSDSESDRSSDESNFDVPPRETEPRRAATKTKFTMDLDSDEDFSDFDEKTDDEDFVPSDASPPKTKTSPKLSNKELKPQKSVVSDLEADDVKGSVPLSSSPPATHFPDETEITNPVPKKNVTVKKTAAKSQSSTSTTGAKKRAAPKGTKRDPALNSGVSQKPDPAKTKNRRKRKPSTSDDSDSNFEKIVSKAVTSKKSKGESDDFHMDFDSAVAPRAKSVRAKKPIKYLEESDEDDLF
Protocol: An assay capable of measuring non-covalent complexes of topoisomerase II on closed circular DNA was performed as described in Morris et al., 2000, with modifications. When performing six reactions, 60 μL M280 streptavidin coated bead (Dynal A/S, Oslo, Norway) slurry corresponding to 600 μg beads was transferred to a 1.5 mL tube that was then placed in a Dynal MPC-E (magnetic particle concentrator) rack (Dynal A/S, Oslo, Norway) for 1 to 2 minutes until the beads had settled on the tube wall. The beads were then washed twice in the DNA binding solution supplied with the kilobase binding kit (Dynal A/S, Oslo, Norway) by repeating this step. Finally, the beads were re-suspended in 250 μL DNA binding solution. A preparation of biotin labelled plasmid DNA containing a 5-kb super coiled circular DNA molecule carrying 8 successive PNA (Peptide Nucleic Acid) linked biotin labels at one known position (pGeneGrip biotin blank vector, Gene Therapy Systems Inc., San Diego, Calif., USA) was made by mixing 220 μL distilled water and 30 μL biotinylated DNA. After mixing the beads and the DNA preparation, the sample was left overnight at room temperature under gentle agitation to assure optimal formation of the DynaBeads DNA complex. Next, the complex was washed twice in 480 μL wash buffer (10 mM TRIS-HCL, pH 7.5, 2 M NaCl, 1 mM EDTA), once in distilled water, and once in topoisomerase reaction buffer (10 mM TRIS-HCl, pH 7.9, 50 mM NaCl, 50 mM KCl, 5 mM MgCl2, 1 mM EDTA, […] BSA). Then, the beads were re-suspended in 600 μL topoisomerase II buffer and divided into 6 tubes. 100 μL reactions containing plasmid DNA coated DynaBeads, topoisomerase II buffer, 2 μg purified human topoisomerase […] and drugs were incubated for 30 minutes at 37° C. When included, ATP was present at 1 mM. […]
FIG. 7 describes the results of studies of the ability of NSC 35866 to stabilise a salt-stable complex of human topoisomerase II α on covalently closed circular DNA. Retention of salt-stable (to 2 M KCl) complexes of human topoisomerase II α on circular DNA attached to magnetic beads via biotin-streptavidin linkage was determined by eluting retained protein by adding running buffer containing 4% SDS followed by heating to 100° C. for 10 minutes. The amount of human topoisomerase II α protein retained was then determined by running the samples on 7% SDS-PAGE gels followed by straining with GelCode Blue Strain Reagent (Pierce, Rockford, Ill., USA): Lane 1, no drug; Lane 2, 200 μM ICRF-187; Lane 3, 30 μM NSC 35866; Lane 4, 100 μM NSC 35866; Lane 5, 300 μM NSC 35866; Lane 6, 1000 μM NSC 35866; Lane K, 2 μg human topoisomerase II α. […]

[3] = test system: human SCLC NCI-H69 cells; test: Protection from etoposide-induced cytotoxicity, NCI-H69; type: cell-based
Protocol: Human small cell lung cancer (SCLC) OC—NYH (de Leij et al., 1985) and NCI-H69 cells (Cuttitta et al., 1981) were grown in RPMI-1640 medium supplemented with 10% fetal calf serum, 100 U/mL penicillin-streptomycin at 37° C. in a humidified atmosphere containing 5% CO2 in the dark.
Clonogenic assay was performed essentially as described in Jensen et al., 1993. […] Cells were then plated in 0.3% agar in 6 cm petri dishes with sheep red blood cells as feeder layer in triplicate, and were incubated under the same conditions as described above. Plates were counted after 3 weeks.

[4] = biological target: T2, bisdioxopiperazine resistant Y165S mutant human topoisomerase II α (Homo sapiens, UniProt P11388, Y165S); type: biochemical; conditions: FIG. 2-B
T2 construct: made in house; host or cells: yeast (over-expressing yeast cells)
T2 sequence (P11388 whole entry Y165S): as the sequence (P11388 whole entry) above, with Y165S counted along it
Protocol: Topoisomerase II catalytic activity (DNA strand passage activity) was measured by using a filter-based kDNA decatenation assay as described in Jensen et al., 2002. Briefly, 200 ng ^3H labelled kDNA isolated from C. fasciculata was incubated with increasing concentrations of drug in 20 μL reaction buffer containing 10 mM TRIS-HCl pH 7.7, 50 mM NaCl, 50 mM KCl, 5 mM MgCl2, 1 mM EDTA, 15 μg/mL BSA and 1 mM ATP using two units of purified wild-type or Y165S mutant topoisomerase II α for 20 minutes at 37° C. (where one unit of activity is defined as the amount of enzyme required for complete decatenation in the absence of drug). After addition of 5× stop buffer (5% Sarkosyl, 0.0025% bromophenol blue, and 50% glycerol), unprocessed kDNA network and decatenated DNA mini-circles were separated by filtering, and the amount of unprocessed kDNA in each reaction was determined by scintillation counting.
Inhibition of human topoisomerase II α DNA strand passage activity was assessed by decatenation of tritium-labelled Crithidia fasiculata kDNA using a filter-based assay to separate unprocessed kDNA network from decatenated mini-circles.

[5] = biological target: T1, topoisomerase II α; test: Band depletion assay (extractable topoisomerase II α, western blot); type: cell-based; set-up: OC—NYH cells were exposed to increasing concentrations of NSC 35866 for one hour and total proteins were extracted at 0.3 M NaCl; endogenous in cells; host or cells: human small cell lung cancer OC-NYH cells; conditions: OC—NYH cells, one hour
Protocol: Band depletion assay was performed essentially as described in Sehested et al., 1998. The amount of extractable topoisomerase II α was detected by the ECL detection method (Amersham, Buckinghamshire, United Kingdom). OC—NYH cells were exposed to increasing concentrations of NSC 35866 for one hour and total proteins were extracted at 0.3 M NaCl. For detection of topoisomerase II α, a polyclonal primary antibody (Bio Trend, Cologne, Germany) was used. Horseradish peroxidase linked anti-rabbit antibody (Amersham, Buckinghamshire, United Kingdom) was used as secondary antibody.
FIG. 10 describes the results of studies of the ability of NSC 35866 to trap human topoisomerase II α as a non-extractable complex on DNA in a dose dependent manner. The ability of NSC 35866 to stabilise topoisomerase II α as a non-extractable complex on DNA in human SCLC OC—NYH cells was assessed using the band depletion assay as described herein. The amounts of topoisomerase II α was visualised by western blotting using a topoisomerase II α specific primary antibody: Lane 1, no drug; Lane 2, 200 μM ICRF-187; Lane 3, 200 μM NSC 35866; Lane 4, 500 μM NSC 35866; Lane 5, 1000 μM NSC 35866. Band depletion of the topoisomerase II α isoform caused by NSC 35866 was detected in two independent experiments.

[6] = biological target: T3, human topoisomerase II α-DNA covalent complexes (Homo sapiens, UniProt P11388); test: Topoisomerase II DNA cleavage assay (phenol-chloroform extraction, Δcpm); type: biochemical; conditions: 1000 μM
T3 construct: made in house; host or cells: yeast (over-expressing yeast cells)
T3 sequence (P11388 whole entry, one chain of several): as the sequence (P11388 whole entry) above
Text: In order to determine the ability of NSC 35866 to increase the level of topoisomerase II-DNA covalent complexes on DNA in vitro, a new and highly sensitive topoisomerase II DNA cleavage assay having a numeric readout was developed. […] The DNA substrate is a 950 bp linear ^3H-labelled DNA synthesized by PCR in the presence of ^3H-dATP. […] The DNA fragment was isolated from unincorporated dNTPs by ethanol precipitation at 0.3 M NaCl, followed by washing in 70% ethanol. The specific activity of the fragment was typically 10,000-20,000 cpm/μg. Before starting the assay, a drug dilution series comprising 10× the final drug concentration was made. Reaction mixtures containing 100 ng of the 950 bp linear ^3H-labelled DNA, 300 ng human topoisomerase II q, topoisomerase II cleavage buffer (10 mM TRIS-HCL pH 7.9, 50 mM NaCl, 50 mM KCl, 5 mM MgCl2, 1 mM EDTA, 15 μg/mL BSA and 1 mM Na2ATP), and increasing concentrations of drug in 50 μL reaction volumes were then incubated 10 minutes at 37° C. A “no topoisomerase II” sample and a “no drug” sample were always included as controls. Next, the cleavable complex was trapped by adding 5 μL 10% SDS. After vigorous vortexing, 45 uL TE buffer, pH=8.0, was added to obtain 100 μL per sample. 100 μL phenol:chloroform:isoamyl alcohol (25:24:1) equilibrated with TE buffer, pH=8.0, was then added, and the samples were vortexed vigorously for 30 seconds. Finally, the samples were centrifuged at 20,000 g for 2 minutes and 90 μL of the upper water phase was used for scintillation counting using 15 mL of Ultima gold scintillation fluid (Packard).
In order to establish whether NSC 35866 inhibits the DNA strand passage reaction of topoisomerase II by stabilising a covalent reaction intermediate, a new and highly sensitive topoisomerase II DNA cleavage assay having a numeric read-out was developed. This assay is based on the fact that after extraction with phenol-chloroform, protein-bound DNA is removed from the water phase, while naked DNA remains in the water phase. […] Consequently, in reactions containing topoisomerase II and linear DNA, the ability of compounds to remove DNA from the water phase after phenol-chloroform extraction should reflect their potency as topoisomerase II poisons. This assay was first validated by incubating 100 ng of a linear 950 bp PCR DNA fragment with 300 ng of purified human topoisomerase II α in the presence of increasing concentrations of the etoposide and m-AMSA. The DNA fragment was ^3H labelled by performing PCR in the presence of ^3H-dATP. In these experiments, a “no topoisomerase II” sample was always included to determine the level of radioactivity (DNA) retained in the water-phase when no enzyme is present. Within each experiment, the CPM values retained in the water phase in the topoisomerase II reactions were then subtracted from this background CPM value to give Δcpm. Consequently, the Δcpm values of samples with no drug added represent the background level of topoisomerase II-DNA covalent complexes present in the reaction mixture under the assay conditions, while the Δcpm levels in the presence of drugs represent the levels of poison-induced topoisomerase II-DNA covalent complexes.

**Q.** How did the “reduction of etoposide-induced cytotoxicity” value [1] turn out when Nc1nc(SCCc2ccccc2)c2nc[nH]c2n1 [NSC 35866, 2-amino-6-(phenylethylthio)-purine] was run?
**A.** up to 50 fold

**Q.** What about the “retention of topoisomerase II on DNA beads after 2 M KCl wash, in words” value ([2]; 30, 100, 300 and 1000 μM, with ATP) of the same molecule?
**A.** traps human topoisomerase II α as a salt-stable complex on circular closed DNA in a dose-dependent manner

**Q.** And the “retention of topoisomerase II on DNA beads, in words” value ([2]; in the absence of ATP)?
**A.** only at 300 and 1000 μM

**Q.** And the “protection from etoposide-induced cytotoxicity, in words” value [3]?
**A.** capable of protecting

**Q.** What about the “inhibition of catalytic activity of the Y165S protein, in words” value [4] of the same molecule?
**A.** capable of doing so

**Q.** And the “effect on amount of extractable topoisomerase II α, in words” value (“effect on amount” for short) ([5]; 200 μM)?
**A.** no effect

**Q.** What about the “effect on amount” value ([5]; 500 μM) of the same molecule?
**A.** reduced the amount of extractable topoisomerase II

**Q.** What about the “effect on amount” value ([5]; 1000 μM) of the same molecule?
**A.** reduced the amount of extractable topoisomerase II

**Q.** What about the “effect on level of topoisomerase II-DNA covalent complexes, in words” value [6] of the same molecule?
**A.** no measurable effect
